The values below come from US20170151192A1, “METHODS, COMPOSITIONS AND DEVICES FOR TREATMENT OF MOTOR AND DEPRESSION SYMPTOMS ASSOCIATED WITH PARKINSON'S DISEASE” (N TO B LTD., priority 2013, published 2017).

Where two headings read alike, the source gives them in different places. Some results are limits rather than exact numbers.

The target of data set [1] is T1, MAO-A (Rattus norvegicus, UniProt P21396). Conditions: 0.3 mg/kg, 1 hour after treatment. The source says:
(§1) Adult (3-month old) male Sprague Dawley rats, weighing about 250 grams, were from Harlan Laboratories, Inc Israel.

Data set [2] concerns the target T2, MAO-B (Rattus norvegicus, UniProt P19643). The settings on record: 0.1 and 0.3 mg/kg, 1 hour after treatment.
Excerpt: as §1

The target of data set [3] is T1, MAO-A. In words: in vivo. Conditions: for inhibition at 6 mg/kg / inhibition at 0.6 mg/kg / inhibition at 1.5 mg/kg: rat, inhaled or nasal. Here is the method: (§2) Control liquid formulations included vehicle only.
(§3) The animals were acutely administered intranasally and sacrificed 4 hours following drug/vehicle administration. The brain regions, hippocampus and striatum, as well as the small intestine were dissected out. […] In brief, samples were dissected out at 4° C. and homogenized. Homogenates were incubated with [C^14]serotonin for 30 minutes (final concentration 100 μM) as a substrate for MAO-A, or with [C^14]phenylethylamine for 20 minutes (final concentration 100 μM) as a substrate for MAO-B. The radioactivity was determined by liquid- scintillation.

Data set [4] concerns the target T2, MAO-B. In words: in vivo. As to the method:
as §2, §3

For data set [5], the target named is T1, MAO-A. Here is the method: (§4) The animals were acutely administered and sacrificed 4 hours following drug/vehicle administration. The brain regions, hippocampus and striatum, as well as the small intestine were dissected out. All tissues were frozen at −80° C. for further analysis.
Data set [6] deals with T2, MAO-B. Conditions: both regimens (intranasal and oral), 0.24 and 0.6 mg/Kg, p<0.05, data not shown. Here is the method:
as §4

Data set [7] has as its system pressor responses to oral tyramine. The settings on record: rats, cited from earlier work.
For data set [8] the following is noted: extensive first pass hepatic metabolism; cited from earlier work.

T1 sequence (P21396 whole entry): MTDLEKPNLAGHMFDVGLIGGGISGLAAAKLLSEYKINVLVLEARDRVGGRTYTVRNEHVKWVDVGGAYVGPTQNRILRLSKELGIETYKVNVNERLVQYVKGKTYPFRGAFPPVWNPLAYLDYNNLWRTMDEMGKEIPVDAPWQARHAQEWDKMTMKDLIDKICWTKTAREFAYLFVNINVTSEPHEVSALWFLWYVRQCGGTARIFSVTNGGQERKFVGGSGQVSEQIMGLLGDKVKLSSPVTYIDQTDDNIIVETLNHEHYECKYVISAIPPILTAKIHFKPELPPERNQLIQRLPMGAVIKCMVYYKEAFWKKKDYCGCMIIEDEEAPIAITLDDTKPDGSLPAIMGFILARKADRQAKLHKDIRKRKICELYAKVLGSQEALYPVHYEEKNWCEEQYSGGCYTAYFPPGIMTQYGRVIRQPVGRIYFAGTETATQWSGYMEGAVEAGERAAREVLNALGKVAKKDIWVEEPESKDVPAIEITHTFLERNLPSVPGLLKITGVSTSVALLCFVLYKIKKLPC
T2 sequence (P19643 whole entry): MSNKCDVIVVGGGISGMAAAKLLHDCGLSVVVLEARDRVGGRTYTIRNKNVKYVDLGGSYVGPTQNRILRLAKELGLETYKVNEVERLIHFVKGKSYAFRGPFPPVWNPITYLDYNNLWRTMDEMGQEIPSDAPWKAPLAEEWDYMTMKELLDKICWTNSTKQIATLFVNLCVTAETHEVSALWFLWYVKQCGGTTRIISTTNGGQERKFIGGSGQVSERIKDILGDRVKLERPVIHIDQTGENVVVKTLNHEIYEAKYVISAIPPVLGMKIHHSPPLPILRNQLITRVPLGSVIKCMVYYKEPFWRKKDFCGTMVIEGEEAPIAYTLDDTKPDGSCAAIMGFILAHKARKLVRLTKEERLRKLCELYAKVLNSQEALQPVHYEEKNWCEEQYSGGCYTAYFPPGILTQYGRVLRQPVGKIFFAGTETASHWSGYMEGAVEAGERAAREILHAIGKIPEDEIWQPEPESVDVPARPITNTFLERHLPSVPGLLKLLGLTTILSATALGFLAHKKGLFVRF

As for `C#CCN[C@@H]1CCc2ccccc21` [Rasagiline, N-propargyl-1-(R)-aminoindan], on MAO-A [1] (FIG. 1), the “brain MAO-A inhibition, NAS delivery compared to IP” value was “significantly inhibited”. On MAO-A [1] (FIG. 3), the “liver MAO-A inhibition, IP compared to NAS delivery” value is recorded as “significantly inhibited”. Also, the “difference in brain MAO-B inhibition between IP and NAS” value at MAO-B [2] (FIG. 2) is on record as “no significant difference”. The “differences in liver MAO-B inhibition between IP and NAS” value at MAO-B [2] (FIG. 4) was “No significant differences”. The “MAO-A activity in striatum and hippocampus, dose dependence” value at MAO-A [3] (intranasal powder formulation, 0.24, 0.6, 1.5 and 6 mg/kg, FIG. 6) was “dose-dependently inhibited”. The “striatal MAO-A inhibition, powder compared to liquid formulation” value at MAO-A [3] (intranasal, 0.6 mg/kg, FIG. 5) is recorded as “significant higher inhibition”. The inhibition at 6 mg/kg was above 90% on MAO-A [3] (read-out: MAO-A inhibition in striatum and hippocampus, intranasal, 6 mg/kg powder formulation); 91% at MAO-A [3] (read-out: MAO-A inhibition, Brain, intranasal, 6 mg/kg liquid formulation, 4 h); 86% at MAO-A [3] (read-out: MAO-A inhibition, Intestine, intranasal, 6 mg/kg liquid formulation, 4 h); 92% at MAO-A [3] (read-out: MAO-A inhibition, Intestine, intranasal, 6 mg/kg powder formulation, 4 h); 83% on MAO-A [3] (read-out: MAO-A inhibition, Liver, intranasal, 6 mg/kg liquid formulation, 4 h); 98% on MAO-A [3] (read-out: MAO-A inhibition, Striatum, intranasal, 6 mg/kg powder formulation, 4 h). Moreover, the inhibition at 6 mg/kg was found to be 75% on MAO-B [4] (rat, inhaled or nasal, read-out: MAO-B Inhibition, Intestine, intranasal, 6 mg/kg liquid formulation, 4 h) and 78% on MAO-B [4] (rat, inhaled or nasal, read-out: MAO-B Inhibition, Intestine, intranasal, 6 mg/kg powder formulation, 4 h). For the same compound, the inhibition at 0.6 mg/kg came to 33% on MAO-A [3] (read-out: MAO-A inhibition, Brain, intranasal, 0.6 mg/kg liquid formulation, 4 h); 44% at MAO-A [3] (read-out: MAO-A inhibition, Brain, intranasal, 0.6 mg/kg powder formulation, 4 h); 32% on MAO-A [3] (read-out: MAO-A inhibition, Intestine, intranasal, 0.6 mg/kg liquid formulation, 4 h); 42% at MAO-A [3] (read-out: MAO-A inhibition, Intestine, intranasal, 0.6 mg/kg powder formulation, 4 h); 19% on MAO-A [3] (read-out: MAO-A inhibition, Liver, intranasal, 0.6 mg/kg liquid formulation, 4 h); 44% on MAO-A [3] (read-out: MAO-A inhibition, Liver, intranasal, 0.6 mg/kg powder formulation, 4 h). The inhibition at 0.6 mg/kg was determined as 61% at MAO-A [3] (read-out: MAO-A inhibition, Striatum, intranasal, 0.6 mg/kg powder formulation, 4 h); 63% on MAO-B [4] (rat, inhaled or nasal, read-out: MAO-B Inhibition, Intestine, intranasal, 0.6 mg/kg liquid formulation, 4 h); 68% at MAO-B [4] (rat, inhaled or nasal, read-out: MAO-B Inhibition, Intestine, intranasal, 0.6 mg/kg powder formulation, 4 h). Also, the inhibition at 1.5 mg/kg at MAO-A [3] (read-out: MAO-A inhibition, Hippocampus, intranasal, 1.5 mg/kg powder formulation, 4 h) amounted to 86%; on MAO-A [3] (read-out: MAO-A inhibition, Intestine, intranasal, 1.5 mg/kg powder formulation, 4 h), 74%; at MAO-B [4] (rat, inhaled or nasal, read-out: MAO-B Inhibition, Intestine, intranasal, 1.5 mg/kg powder formulation, 4 h), 72%. Besides, the “MAO-B activity inhibition in striatum and hippocampus” value on MAO-B [4] (intranasal, 0.24 to 6 mg/kg, both powder and liquid formulations, p<0.05 vs vehicle) is given as “about 98%”; at MAO-B [6], “about 99%”. Besides, the “MAO-A inhibition in striatum and hippocampus, intranasal (powder) compared to oral” value at MAO-A [5] (0.24 and 0.6 mg/Kg, 4 h, FIGS. 8A-B) is on record as “significantly increased”. Besides, the “MAO-A inhibition in the periphery (small intestine), intranasal compared to P.O.” value on MAO-A [5] (0.24 and 0.6 mg/kg, FIG. 9) was “significantly lower”. Besides, the “cheese reaction (MAO-A and MAO-B both inhibited)” value in data set [7] (10 mg/kg oral dose) is “induces the “cheese reaction””. For the same compound, the “potentiation of pressor responses to oral tyramine” value in data set [7] (21 days chronic treatment, oral doses up to 2 mg/kg daily) is given as “does not potentiate”; in data set [7] (single oral doses up to 5 mg/kg) it was “does not potentiate”.

On to `C#CCN(C)[C@H](C)Cc1ccccc1` [Selegiline, (R)-N-methyl-N-(1-phenylpropan-2-yl)prop-1-yn-3-amine], for which the oral bioavailability in data set [8] was 4-10%.
